# Test results: US6277867A, “Pesticide compounds, compositions and process for the preparation thereof” (priority 1995, dated 2001)
# Columns and labels:
# [1] = system: resistant house fly, INSEL strain; test: Synergistic activity on resistant house fly, INSEL strain; format: in vivo, Musca domestica; conditions: active ingredient alone
# Procedure: (§1) Investigation of Synergistic Activity on Resistant House Fly (Musca domestica) Populations
# (§2) Investigation was carried out as described in biological Example 1. LD50 values and synergist ratios were determined as given in Example 2.
# [2] = system: resistant house fly, IX strain; test: Synergistic activity on resistant house fly, IX strain; format: in vivo, Musca domestica; conditions: active ingredient alone
# Procedure: as §1, §2
# [3] = system: two-spotted spider mite (Tetranychus urticae); test: Synergism of acaricidal effect on two-spotted spider mite (leaf-disc dip); format: in vivo; conditions: 48 h
# Procedure: Synergism of Acaricidal Effect Investigated on Two-spotted Spider Mite (Tetranychus urticae)
# (§3) From the first pair of leaves of a 1 week old bean plant leaf-discs of […] diameter were cut which were treated by dipping them (5 min) into the test solution consisting of the active ingredient and the synergist in definite concentrations. For the preparation of the stock solutions of required concentration, 10% acetone as co-solvent and 0.1% Tween-80 as detergent were applied. The dried leaf-discs were placed on wet surface and they were infected with […]-up female mites per leaf. After 48 hours the mortality was recorded using microscope and a brush. The experiment was performed in 4 replica.
# [4] = system: two-spotted spider mite (Tetranychus urticae); test: Synergist activity of compound 599 against two-spotted spider mite; format: in vivo; conditions: 24 h
# Procedure: as §3, with “After 48 hours the mortality was recorded using microscope and a brush.” left out
# Synergist activity of compound 599 with various specific acaricides was investigated against two-spotted spider mite (Tetranychus urticae), by the method described in Example 8.
# [5] = system: pea aphid (Acyrthosiphon pisun); test: Synergist activity against pea aphid, field trial; format: in vivo; conditions: two days after treatment
# Procedure: Synergist Activity Against Pea Aphid (Acyrthosiphon pisun)
# Synergist activity of compound No. 599 was tested against pea aphid (Acyrthosiphon pisun) in field trials on small plots (10 m^2). 300 l/ha spray volume was applied using motoric sprayer (Maruyama). Efficacy was expressed by the average number of aphids/leaf before, and two days after the treatment, respectively. (Henderson and Tilton: J. Econ. Entomol., 48:157, 1955).
# [6] = system: house fly (Musca domestica); conditions: in vivo, topical_or_ocular, 1440 min
# Procedure: Investigation of Synergistic Activity on House Fly (Musca domestica) Following Topical Application
# In two parallel experiments 10 female. 2-4 day old house flies were treated on the vental side of their thorax with 0.2 μl of the test solution, with the help of Hamilton MicroLab P microdispenser. Beside fixed synergist dose of 1000 ng/fly the animals were treated with carbofuran at a dose of 20 ng/fly. For solvent cellosolve was used. Selection and counting of the flies were performed under the action of CO2. After treatment the flies were kept in plastic cups covered with tulle. Mortality after 24 hours was expressed in %.
# [7] = system: cotton bollworm (Helicoverpa armigera); test: Synergistic activity on cotton bollworm following topical application; conditions: in vivo
# Procedure: Investigation of Synergistic Activity on Cotton Bollworm (Helicoverpa armigera) Following Topical Application
# Treatment was performed similarity as described in Example 1. but L2 stadium grubs of cotton bollworms (Helicoverpa armigera) were treated as test animals. From the 24 hour dose--mortality data the LD50 (ng/grub) values were determined using probit analysis. None of the synergists acted at the applied 1000 ng/grub dose. Synergist ratio was calculated as the quotient of the LD50 values of carbofuran administered alone, and with the synergist. The experiments were performed in 2-4 replica.
# [8] = system: house fly (Musca domestica); test: Effect of the active ingredient:synergist ratio on the synergistic activity (flies)
# Procedure: Effect of the Active Ingredient:Synergist Ratio on the Synergistic Activity
# Treatment was performed as described in Example 1. using Hamilton MicroLab P microdispenser. In two parallel experiments 10 female -3 day old flies were treated on the ventral side of their thorax with 0.2 μl test solution. Beside 1000-400-200-80 ng/fly fixed doses of the synergist they were treated with constant 20 ng/fly CARBOFURAN®. Selection and counting of the flies were performed under the action of CO2. After treatment the flies were kept in plastic cups covered with tulle. After 24 hours mortality % was recorded. Depending on the results the experiments were performed in 2-4 replica.
# [9] = system: house fly (Musca domestica); test: Effect on fecundity, on house fly; format: in vivo; conditions: 500 ppm in granulated sugar, 48 hours feeding; eggs of next 10 days
# Procedure: Investigation of the Effect on Fecundity, on House Fly (Musca domestica)
# Groups consisting of freshly hatched 50 male and 50 female flies were fed during 48 hours with granulated sugar comprising 500 ppm of material No. 441 and 484 of the present invention respectively, and the eggs layed on the next 10 days were raised. The fecundity-hindering effect was expressed as the quotient of the emerged flies in the treated and untreated groups. The experiments were performed in 4 replica.
# flies = test: Comparative investigations with known reference synergists on flies treated with carbofuran; format: in vivo; conditions: flies treated with carbofuran and 1000 ng of the synergist
# Excerpt: These SR50 ratios were compared to those of the new compounds prepared by us.
# mammals = conditions: cited from earlier work
structure (smiles),measurement,setting,value
"CNC(=O)Oc1cccc2c1OC(C)(C)C2 [CARBOFURAN, reference compound]",LD50,[1],15375 ng/fly
same,LD50,[2],> 100000 ng/fly
same,mortality at 31 ppm,[3],13%
same,mortality at 62 ppm,[3],39%
same,mortality at 125 ppm,[3],44%
same,mortality at 250 ppm,[3],81%
same,mortality at 500 ppm,[3],90%
same,LC50,[4],164 µg/mL
same,E (%),[5]; dose 110 act. ingr./ha,98.0%
same,E (%),[5]; dose 160 act. ingr./ha,99.1%
"CC#CCOCc1ccc2c(c1)OCO2 [Compound 441, 5-[(But-2-ynyloxy)-methyl]-1,3-benzodioxole]",mortality %,[6],97%
same,Synergist ratio,[7],> 5
same,24 hour mortality (%),[8]; carbofuran 20 ng/fly + synergist 80 ng/fly,62%
same,24 hour mortality (%),[8]; carbofuran 20 ng/fly + synergist 200 ng/fly,67%
same,24 hour mortality (%),[8]; carbofuran 20 ng/fly + synergist 400 ng/fly,90%
same,24 hour mortality (%),"[8]; house fly, in vivo, topical_or_ocular",95%
same,Hindering effect on fecundity,[9],87%
same,Synergist ratio SR50,flies,25.70
"CC#CCOC(c1ccc2c(c1)OCO2)C(C)C (stereo not shown) [Compound 484, 5-[2-Methyl-1-(2-butynyloxy)-propyl]-1,3-benzodioxole]",mortality %,[6],63%
same,Synergist ratio,[7],> 5
same,Hindering effect on fecundity,[9],90%
CCCCOCCOCCOCc1cc2c(cc1CCC)OCO2 [PBO],tumor provoking effect,mammals,suspected tumor provoking effect
